Read-outs that look alike come from different tables or passages of the source.
What was measured:
[1] = tested on: HCT116 (human colon cancer cells), RAW264.7 (mouse macrophages), BV-2 (mouse microglia); test: Confocal imaging with HKSOX-1r of O2^•− induced by mitochondrial respiratory inhibitors; format: cell-based
Experimental: To validate the inhibitor effects, three different types of cell were used: HCT116 (human colon cancer cells), RAW264.7 (mouse macrophages), and BV-2 (mouse microglia).
(§1) In each group, upper: fluorescence images; lower: fluorescence images merged with bright field images.
(left) Untreated cells incubated with probe alone for 30 min. (right) Cells co-incubated with probe and antimycin A (5 μM) for 30 min. Upper: fluorescence images; lower: fluorescence images merged with bright field images.

[2] = tested on: Hela (human cervical epithelial cancer cells), BV-2 (mouse microglia), RAW264.7 (mouse macrophages); test: Confocal imaging with HKSOX-2 of O2^•− induced by mitochondrial respiratory inhibitors; format: cell-based; set-up: probe fluorescence response upon induction of mitochondrial O2^•−: dose or concentration left out as unconfirmed
Experimental: We also tested HKSOX-2 (5 μM) in detection of O2^•− induced by mitochondrial respiratory inhibitors (30 min treatment): antimycin A (complex III inhibitor; 10 μM), rotenone (complex I inhibitor; 10 μM) and FCCP ([…]; 10 μM). To validate the inhibitor effects, three different types of cell were used: Hela (human cervical epithelial cancer cells), BV-2 (mouse microglia), and RAW264.7 (mouse macrophages).
as §1

[3] = tested on: mouse microglia (BV-2 cells); test: Confocal imaging of endogenous O2^•− with HKSOX-2m in PMA-activated microglia; format: cell-based; conditions: 30 min; for effect on HKSOX-2m fluorescence in PMA-stimulated microglia: Mdivi-1 100 μM, Gö6983 100 nM
Experimental: (§2) We assessed the application of HKSOX-2m (2 μM) in confocal imaging of O2^•− in different types of cell. For detection of endogenous O2^•−, two different cell types were used: mouse macrophages (RAW264.7 cells) and mouse microglia (BV-2 cells). PMA (phorbol-12-myristate-13-acetate), a PKC activator and acute O2^•− inducer, was used to activate macrophages. The chemical scavenger TEMPOL (4-hydroxy-TEMPO; 300 μM) was used to remove O2^•− in activated macrophages. Mdivi-1 (100 μM), a Drp-1 (dynamin-related protein 1) inhibitor that inhibits mitochondrial fission and subsequent mitochondrial O2^•− production, was used to block mitochondrial O2^•− formation. Additionally, Gö6983 (100 nM), a PKC inhibitor, was used to abolish PMA-mediated effects in O2^•− induction.

[4] = tested on: mouse macrophages (RAW264.7 cells); test: Confocal imaging of endogenous O2^•− with HKSOX-2m in PMA-activated macrophages; format: cell-based; conditions: 30 min; for effect on HKSOX-2m fluorescence in PMA-stimulated macrophages: Mdivi-1 100 μM, Gö6983 100 nM
Experimental: as §2

[5] = tested on: RAW264.7 mouse macrophages; test: Confocal imaging of endogenous O2^•− with HKSOX-1r in LPS/IFN-γ activated macrophages; format: cell-based
Experimental: We assessed the application of HKSOX-1r in confocal imaging of O2^•− in different types of cell. For detection of endogenous O2^•−, we used mouse macrophages (RAW264.7 cells) as a cellular model. Bacterial lipopolysaccharide (LPS from Salmonella typhimurium; 500 ng/mL) and the proinflammatory cytokine interferon-γ (IFN-γ from mouse; 50 ng/mL) were used to activate macrophages. […] Additionally, the O2^•− decomposition catalyst FeTMPyP (50 μM) and chemical scavenger TEMPOL (4-hydroxy-TEMPO; 300 μM) were used to remove O2^•− in activated macrophages.
The cells were co-stained with mitochondrial dye MitoTracker Red (50 nM) and nuclear DNA dye Hoechst 33342 (150 ng/mL) for 30 min. Merged: all fluorescence images merged. (a) Untreated cells; (b) cells stimulated with LPS (500 ng/mL) and IFN-γ (50 ng/mL) for 14 h, followed by HKSOX-1r staining for 30 min; (c) cells co-treated with LPS/IFN-γ and gp91ds-tat (2 μM) for 14 h, followed by HKSOX-1r staining (30 min); (d) cells stimulated with LPS/IFN-γ for 14 h, followed by co-incubation of HKSOX-1r and FeTMPyP (50 μM) for 30 min; (e) cells stimulated with LPS/IFN-γ for 14 h, followed by co-incubation of HKSOX-1r and TEMPOL (300 μM) for 30 min.

[6] = Fluorescence response of probe to O2^•− generated by xanthine/xanthine oxidase and to other oxidants, reductants, esterase and GSH in phosphate buffer; conditions: 1 μM probe
Experimental: The stock solution of HKSOX-1 (10 mM) is diluted in 0.1 M potassium phosphate buffer at pH 7.4 to obtain a 10 μM solution, with excitation and emission spectra at 509 nm and 534 nm, respectively. As expected, the probe HKSOX-1 was non-fluorescent (FIG. 1).
The stock solution of HKSOX-2 (1 mM) is diluted in 0.1 M potassium phosphate buffer at pH 7.4 to obtain a 1 μM solution, with excitation and emission spectra at 535 nm and 562 nm, respectively.

[7] = tested on: BV-2 mouse microglial cells; test: Confocal imaging comparison of HKSOX-2m and MitoSOX Red with multiple superoxide inducers, co-staining with MitoTracker Green and Hoechst; format: cell-based; conditions: for fluorescence with various stimulants: 40 min; for fluorescence turn-on response: Ex 543 nm
Experimental: To further validate the performance of HKSOX-2m as a mitochondria-targeting superoxide probe, we conducted confocal imaging of HKSOX-2m with multiple superoxide inducers in BV-2 mouse microglial cells (FIG. 11), and compared HKSOX-2m's performance with that of MitoSOX Red™ (a widely used commercial fluorescent probe for mitochondrial superoxide detection; Invitrogen), by using the same drugs as stimulants (FIG. 12). Briefly, BV-2 cells were co-incubated for 40 min with probes (HKSOX-2m or MitoSOX Red™) and general superoxide inducers (PMA and zymosan, which elicit superoxide production from multiple superoxide sources including mitochondria) or specific mitochondrial superoxide inducers (diethyl succinate, diethyl malonate, and rotenone, which target the mitochondrial respiratory chain complexes). […] Slight spatial shifts in fluorescence signal were occasionally observed in the HKSOX-2m and MitoTracker Green channels, which could be accounted for by mitochondrial dynamics and time lag in confocal laser scanning for each channel. […] In fact, fluorescence distribution of the mitochondrial dye MitoTracker Green (Ex 488; Em 505 nm long-pass) was grossly distorted in the presence of MitoSOX Red™ (due to its broad tailing in emission spectrum), resulting in a loss of mitochondrial morphology.

[8] = tested on: BV-2 mouse microglial cells; conditions: MitoSOX Red 5 μM (maximal dose according to manufacturer's protocol), extended incubation; cited from earlier work
[9] = TEMPOL 300 μM, readout HKSOX-2m 2 μM
[10] = 30 min, antimycin A, rotenone, FCCP 5 μM, malonic acid 500 μM, readout HKSOX-1r 2 μM
[11] = 30 min, antimycin A, rotenone, FCCP 10 μM, readout HKSOX-2

In the case of N#CC(C#N)=NNc1ccc(OC(F)(F)F)cc1 [FCCP], the “degree of efficacy in inducing mitochondrial O2^•− production (rank order)” value (shortened to “degree of efficacy”) [1] is reported as “antimycin A>FCCP>>rotenone>>malonic acid” and the “degree of efficacy” value [2] is reported as “antimycin A>FCCP>>rotenone”.

With COc1ccc2c(c1)c(C1=C(c3c[nH]c4ccccc34)C(=O)NC1=O)cn2CCCN(C)C [Gö6983] the “effect on HKSOX-2m fluorescence in PMA-stimulated microglia” value [3] was “reduced to near basal level” and the “effect on HKSOX-2m fluorescence in PMA-stimulated macrophages” value [4] was “reduced to near basal level”.

In the case of COC(=O)CN(CC(=O)OC)C(=O)c1ccc2c(c1)C(=O)OC21c2cc(F)c(OS(=O)(=O)C(F)(F)F)c(F)c2Oc2c1cc(F)c(OS(=O)(=O)C(F)(F)F)c2F [HKSOX-1r], the “probe fluorescence in stimulated macrophages relative to untreated ones” value ([5]; HKSOX-1r 2 μM, 30 min staining, LPS 500 ng/mL and IFN-γ 50 ng/mL for 14 h) is reported as “much stronger fluorescence signals” and the “probe fluorescence response upon induction of mitochondrial O2^•−” value ([1]; HKSOX-1r at 2 μM, 30 min) is reported as “strong fluorescence response”.

With CCOC(=O)CCCN1c2cc3c(cc2C(C)CC1(C)C)C1(OC(=O)c2ccccc21)c1cc(F)c(OS(=O)(=O)C(F)(F)F)c(F)c1O3 (stereo not drawn) [HKSOX-2] the “enhancement in fluorescence intensity upon O2^•−” value ([6]; 10 equiv of O2^•− generated by X/XO system, 15 min, pH 7.4) was greater than 23 fold, the “increase in fluorescence signals by other oxidants, reductants, esterase and GSH” value ([6]; 10 equiv of H2O2, NO, 1O2, ROO•, TBHP, •OH, ONOO−, HOCl, Fe2+, ascorbic acid, 1,4-hydroquinone, esterase 10 U/mL, GSH 5 mM) was “negligible increase” and the “probe fluorescence response upon induction of mitochondrial O2^•−” value ([2]; 30 min) was “strong fluorescence response”.

For CC1CC(C)(C)N(CCCC(=O)N2CCN(C(=O)CCCC[P+](c3ccccc3)(c3ccccc3)c3ccccc3)CC2)c2cc3c(cc21)C1(OC(=O)c2ccccc21)c1cc(F)c(OS(=O)(=O)C(F)(F)F)c(F)c1O3 (stereo not drawn) [HKSOX-2m], the “fluorescence with various stimulants” value ([7]; HKSOX-2m 2 μM, PMA, zymosan, diethyl succinate, diethyl malonate, rotenone) was “moderate to strong fluorescence”, the fluorescence turn-on response ([7]; HKSOX-2m working dose 2 μM, Em 559-623 nm band-pass) was “highly efficient” and the “probe fluorescence in PMA-stimulated microglia relative to untreated ones” value ([3]; HKSOX-2m 2 μM, PMA 200 ng/mL) was “much stronger fluorescence signals”. The “probe fluorescence in PMA-stimulated macrophages relative to untreated ones” value ([4]; HKSOX-2m 2 μM, PMA 200 ng/mL) was “much stronger fluorescence signals”.

In the case of COc1cc(-n2c(=S)[nH]c3ccccc3c2=O)c(Cl)cc1Cl [Mdivi-1], the “effect on HKSOX-2m fluorescence in PMA-stimulated microglia” value [3] is reported as “reduced to near basal level” and the “effect on HKSOX-2m fluorescence in PMA-stimulated macrophages” value [4] is reported as “reduced to near basal level”.

For Nc1ccc2c(c1)C(c1ccccc1)N(CCCCCC[P+](c1ccccc1)(c1ccccc1)c1ccccc1)c1cc(N)ccc1-2.[I-] (stereo not drawn) [MitoSOX Red™], the “toxicity of the working dose” value ([7]; MitoSOX Red 4 μM) was “near-toxic”, the “fluorescence with various stimulants” value ([7]; MitoSOX Red 4 μM, same stimulants) was “low to moderate fluorescence” and the fluorescence turn-on response ([7]; MitoSOX Red working dose 4 μM) was “rather sluggish”. The “toxicity of the maximal dose” value [8] was “cytotoxic”.

For CC1(C)CC(O)CC(C)(C)N1[O] [TEMPOL, 4-hydroxy-TEMPO], the “effect on HKSOX-1r fluorescence in LPS/IFN-γ activated macrophages” value ([5]; FeTMPyP 50 μM or TEMPOL 300 μM co-incubated with HKSOX-1r for 30 min) was “substantially attenuated”, the “effect on the PMA-induced surge in O2^•− production” value [3, 9] was “greatly suppressed” and the “effect on the PMA-induced surge in O2^•− production” value [4, 9] was “greatly suppressed”.

For O=C(O)CC(=O)O [malonic acid], the “degree of efficacy” value [1, 10] was “antimycin A>FCCP>>rotenone>>malonic acid”.

In the case of C=C(C)[C@H]1Cc2c(ccc3c2O[C@@H]2COc4cc(OC)c(OC)cc4[C@@H]2C3=O)O1 [rotenone], the “degree of efficacy” value [1, 10] is reported as “antimycin A>FCCP>>rotenone>>malonic acid” and the “degree of efficacy” value [2, 11] is reported as “antimycin A>FCCP>>rotenone”.

With antimycin A the “degree of efficacy” value [1, 10] was “antimycin A>FCCP>>rotenone>>malonic acid” and the “degree of efficacy” value [2, 11] was “antimycin A>FCCP>>rotenone”.
